Consider six compounds from patent US7897607B2, “Cyclic compounds” (Takeda Pharmaceutical Company Limited, priority 2005, dated 2011).

A word on the inhibition: it is the relative decrease from the control value, in per cent. Higher therefore signals a response far below the control.

A value given as a limit tells only on which side of the number the result lay.

The assay has as its target T1, human CRF receptor (Homo sapiens, UniProt P34998).
T1 construct: expressed in transfected cells; host or cells: CHO cells (membrane fraction)
T1 sequence (P34998 24-415): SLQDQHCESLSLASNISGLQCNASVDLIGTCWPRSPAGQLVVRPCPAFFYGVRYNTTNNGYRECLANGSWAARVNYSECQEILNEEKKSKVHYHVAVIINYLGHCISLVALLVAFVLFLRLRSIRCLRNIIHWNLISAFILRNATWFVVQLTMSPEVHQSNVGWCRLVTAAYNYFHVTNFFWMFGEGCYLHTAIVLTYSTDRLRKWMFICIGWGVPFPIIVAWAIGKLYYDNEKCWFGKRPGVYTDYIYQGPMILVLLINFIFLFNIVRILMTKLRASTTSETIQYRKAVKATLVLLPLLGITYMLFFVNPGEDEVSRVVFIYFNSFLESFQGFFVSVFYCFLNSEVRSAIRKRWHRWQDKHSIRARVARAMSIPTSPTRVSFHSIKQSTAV
Nature of the assay: Measurement of corticotropin-releasing factor (CRF) binding inhibitory rate; receptor binding experiment with 125I-CRF. The conditions noted are these: human CRF receptor expressing CHO cellular membrane fraction, 50 pM 125I-CRF, room temperature 1 hour. As for the experimental part:
Measurement of Corticotropin-Releasing Factor (CRF) Binding Inhibitory Rate
A receptor binding experiment was carried out using a human CRF receptor expressing CHO cellular membrane fraction and sheep CRF, [^125I]-tyr^0(^125I-CRF). 100 nM of a test compound was incubated with 1 μg of human CRF receptor expressing CHO cellular membrane fraction and 50 pM of ^125I-CRF in a binding assay buffer (50 mM Tris-HCl, 5 mM EDTA, 10 mM MgCl2, 0.05% CHAPS, 0.1% BSA, 0.5 mM PMSF, […] pepstatin, 20 μg/ml leupeptin, pH 7.5). In addition, for measuring nonspecific binding (NSB), 0.1 μM unlabelled human Urocortin was incubated with 1 μg of human CRF receptor expressing CHO cellular membrane fraction and 50 pM of ^125I-CRF in a binding assay buffer. After a binding reaction was carried out at room temperature for 1 hour, the membrane was entrapped on a glass filter (UniFilter plate GF-C/Perkin Elmer) by suction filtration using a cell harvester (Perkin Elmer), and washed with ice-cooled 50 mM Tris-HCl (pH 7.5). After drying the glass filter, a liquid scintillation cocktail (Microscinti 0, Perkin Elmer) was added, and the radioactivity of ^125I-CRF remaining on a glass filter was measured using Topcount (Perkin Elmer).
(TB-SB)/(TB-NSB)×100 (SB: radioactivity when a compound is added, TB: maximum binding radioactivity, NSB: nonspecific binding radioactivity) was calculated to obtain a binding inhibitory rate under the presence of 1,000 nM or 100 nM of each test substances.

For the compound `CCCN(CCC)c1nc2c(c(-c3ccc(C)cc3C)nn2C)c(=O)n1C` [9 (A), 3-(2,4-Dimethylphenyl)-6-dipropylamino-1,5-dimethyl-1,5-dihydro-4H-pyrazolo[3,4-d]pyrimidin-4-one], the inhibition was above 80%.
`CCCN(CCC)c1nc2c(c(-c3c(C)cc(C)cc3C)cn2C)c(=O)n1C` [Example 41, 2-(Dipropylamino)-5-mesityl-3,7-dimethyl-3,7-dihydro-4H-pyrrolo[2,3-d]pyrimidin-4-one]: the inhibition was above 80%.
Then `CCCN(CCC)c1cc(C)c(=O)n2c(-c3c(C)cc(C)cc3C)cccc12` [Example 28, 1-(Dipropylamino)-6-mesityl-3-methyl-4H-quinolizin-4-one], with above 80%.
Then `CCCC(CCC)n1cc(C)c(=O)c2c(-c3ccc(C)cc3C)cccc21` [Example 24, 5-(2,4-Dimethylphenyl)-3-methyl-1-(1-propylbutyl)quinolin-4(1H)-one], with above 80%; and `CCC(CC)Oc1nn(C)c(=O)c2c1ccn2-c1ccc(C)cc1C` [Example 96, 1-(2,4-Dimethylphenyl)-4-(1-ethylpropoxy)-6-methyl-1,6-dihydro-7H-pyrrolo[2,3-d]pyridazin-7-one], with above 80%.
The result for `CCC(CC)n1c2cccc(-c3c(C)cc(C)cc3C)c2c(=O)n1C` [Example 150, 1-(1-ethylpropyl)-4-mesityl-2-methyl-1,2-dihydro-3H-indazol-3-one] reads above 80%.
